“And” between values parts separate entries of the source, which are not always exact repeats. Identical values can stand only once.
Legend:
Assay type in all cases: in vivo, mouse
[1] = tested on: KPC PDAC tumors; test: Picrosirius red staining of KPC tumors (Fig. 1g); details: KPC tumour bearing mice, Gem 100 mg/kg twice weekly i.p. for 15 cycles, individual animals
Text: Fig. 1 Characterization of LOX family in PDAC. a,b, Kaplan–Meier curves for 5-year overall survival for lysyl oxidase family scores in the APGI/ICGC (low, n = 90 patients; high, n = 89 patients) (a) and TCGA (low, n = 57 patients; high, n = 58 patients) (b) PDAC datasets. Lines represent upper and lower tertiles. The lysyl oxidase family expression score is weighted by the Cox proportional hazards model coefficients for each family member. P values determined by log-rank (Mantel–Cox) test. c, Representative images of picrosirius red stained tumor cores from APGI/ICGC tumor microarrays. […] P values determined by log-rank (Mantel–Cox) test. e, Human LOX and LOXL2 plasma concentrations in healthy (n = 30 patient samples) and patients with PDAC (n = 12 patient samples) determined by SiMoA. […] Scale bars, 100 μm. g, Quantitative comparison of picrosirius red staining in tumors from KPC tumor-bearing mice treated with either saline vehicle or gemcitabine (n = 10 biologically independent animals per group). […] Two-tailed P values determined by unpaired, nonparametric t-tests with a Mann–Whitney U-test correction (comparison between two groups). […]

[2] = tested on: Ki67; test: Immunohistochemistry of end-point KPC tumors: proliferating cells; details: KPC tumors at end point
Procedure: (§1) All tissues or matrices, including patient TMAs, were fixed in 10% buffered formalin and embedded in paraffin. The 4-μm sections of samples were deparaffinized with xylene and rehydrated in graded ethanol washes. For immunohistochemistry, Bond Dewax Solution (AR9222) was used. Antigen retrieval was performed using Bond RX H2(30) protocol: HIER 30 min ER1 (citrate pH 6) OR ER2 (EDTA pH 9) at 100 °C. Slides were quenched in BOND Polymer Refine Detection (Leica Biosystems DS9800). […] Slides were digitized on an Aperio slide scanner and representative areas per tumor acquired and analyzed by researchers blinded to the conditions of the experiment.
(§2) Extended Data Fig. 6 PXS-5505 in combination with gemcitabine in a KPC model. a. Quantification of proliferating cells (Ki67 positive nuclear staining) in KPC tumors at end point, treated as indicated. 5 fields of view (500 μm × 500 μm) per mouse and 10 mice per cohort were scored. […] Quantification of percent coverage of αSMA positive staining in KPC tumors at end point, treated as indicated. 3 fields of view (1000 μm × 1000 μm) per mouse and 10 mice per cohort were scored. […] Quantification of percent coverage of PDGFR-ß positive staining in KPC tumors at end point, treated as indicated. 3 fields of view (1000 μm × 1000 μm) per mouse and 10 mice per cohort were scored. […] 3 fields of view (500 μm × 500 μm) per mouse and 10 mice per cohort were scored. […]

[3] = tested on: F4/80; test: Immunohistochemistry of end-point KPC tumors: macrophage infiltration; details: KPC tumours at endpoint; individual replicate values (Extended Data 6G)
Procedure: as §1, §2

## Nc1ccn([C@@H]2O[C@H](CO)[C@@H](O)C2(F)F)c(=O)n1 [Gem, gemcitabine]
[1]
  picrosirius red staining in tumours: 26.8678 and 24.1241 and 47.4949 and 47.2536 and 61.2999 and 20.5678 and 34.5947 and 25.1726 and 42.1276 and 82.533
[2]
  Ki67 positive tumor cells: significantly decreasing the number of Ki67 positive tumor cells

## Cl.Cl.NC/C=C(\F)CS(=O)(=O)c1cccc2cccnc12.O [PXS-5505, (Z)-3-fluoro-4-(quinolin-8-ylsulfonyl)but-2-en-1-amine dihydrochloride monohydrate]
[3]
  macrophage infiltration (F4/80 positive staining): 5 and 7
